# Columns and labels:
# neonatal islets [1] = assay: Quantitative PCR of MafA, insulin and other gene transcription in dispersed neonatal islets cultured with glucose and T3; type: cell-based, rat; conditions: for insulin mRNA / MafA mRNA: 4 days
# Protocol: To analyze the role of thyroid hormone during postnatal development of the endocrine pancreas, dispersed P7 islets were cultured with the two changing physiological stimuli identified so far glucose (11 mM and 20 mM) and tri-iodothyronine (T3 at 10^−11 M in charcoal-stripped fetal bovine serum (CS-FBS)), and after 4 days MafA and insulin transcription were assessed.
# To further explore this idea, dispersed P8 islets were cultured with two changing physiological stimuli identified so far glucose (11 mM and 20 mM) and tri-iodothyronine (T3) at a concentration of 10^−11 M (T-11; gray bars) or with […] T3 (T-9) in charcoal-stripped fetal bovine serum (CS-FBS); after 4 days transcription levels of MafA and the MafA targets Ins2, GLP1R, PCSK1, PC, and LDH-A were assessed.
# (§1) Similar results were found in static incubation experiments were performed with P7 dispersed islets cultured in the presence (or absence) of 10^−11 M T3 for four days. mRNA levels for MafA and Ins2 were evaluated using real-time PCR. […] To further evaluate insulin secretion in these cells, P8 islets were dispersed and then cultured for 4 days with and without 10^−11 M T3, and a reverse hemolytic plaque assay (RHPA) was used to evaluate insulin secretion from single beta cells. […] FIGS. 8A-8B show beta cell glucose responsiveness in 2.8 or 16.8 mM glucose in control cells (8A) or cells treated with T3 (8B) in one of the three RHPA experiments.
# P7 dispersed islets = assay: Glucose-stimulated insulin secretion by static incubation, insulin ELISA; type: cell-based, rat; conditions: 10^−11 M T3 for four days, FIG. 6B
# Protocol: RHPA allows the evaluation of secretion from single beta cells (see, e.g., Bosco et al., Am. J. Physiol., 268:C611-C618, 1995; Aguayo-Mazzucato et al., PLoS ONE, 1:e35, 2006). Briefly, insulin secreted during incubation with glucose binds to anti-insulin antibody and complement and lyses RBCs forming hemolytic immunoplaques around secreting cells. Accordingly, the area of the hemolytic plaque is proportional to the amount of insulin secreted by that individual cell. Glucose-stimulated insulin secretion (GSIS) is reflected by the secretion index: the product of the percentage of secreting cells and the mean area of immunoplaques. RHPA is a very sensitive assay in which the proportion of cells secreting and the robustness of their secretion can be measured. […] Insulin secretion was measured in static conditions by sequential incubation in 2.6 mM and 16.8 mM glucose in Krebs-Ringer bicarbonate buffer (KRB, 16 mM HEPES and 0.1% BSA, pH 7.4) as previously described (Schuppin et al., In Vitro Cell Dev Biol Anim 29A:339-344 (1993); Salomon et al., Exp Cell Res 162:507-520 (1986)). […]
# Similar results were found in static incubation experiments were performed with P7 dispersed islets cultured in the presence (or absence) of 10^−11 M T3 for four days. mRNA levels for MafA and Ins2 were evaluated using real-time PCR. […]
# single beta cells = assay: Reverse hemolytic plaque assay (RHPA) of insulin secretion from single beta cells; type: cell-based, rat
# Protocol: RHPA allows the evaluation of secretion from single beta cells (see, e.g., Bosco et al., Am. J. Physiol., 268:C611-C618, 1995; Aguayo-Mazzucato et al., PLoS ONE, 1:e35, 2006). Briefly, insulin secreted during incubation with glucose binds to anti-insulin antibody and complement and lyses RBCs forming hemolytic immunoplaques around secreting cells. Accordingly, the area of the hemolytic plaque is proportional to the amount of insulin secreted by that individual cell. Glucose-stimulated insulin secretion (GSIS) is reflected by the secretion index: the product of the percentage of secreting cells and the mean area of immunoplaques. RHPA is a very sensitive assay in which the proportion of cells secreting and the robustness of their secretion can be measured. However it is laborious, therefore classic static insulin secretion studies were also performed with an insulin ELISA for measurement. Insulin secretion was measured in static conditions by sequential incubation in 2.6 mM and 16.8 mM glucose in Krebs-Ringer bicarbonate buffer (KRB, 16 mM HEPES and 0.1% BSA, pH 7.4) as previously described (Schuppin et al., In Vitro Cell Dev Biol Anim 29A:339-344 (1993); Salomon et al., Exp Cell Res 162:507-520 (1986)). Supernatants and cells were frozen until assayed for Insulin content.
# as §1
# neonatal islets [2] = assay: Quantitative PCR of MafA, insulin and other gene transcription in dispersed neonatal islets cultured with glucose and T3; type: cell-based, rat; conditions: P7 islets cultured with glucose and T3 at 0.015 nM in CS-FBS for four days, separately and together, FIG. 5A legend
# beta cells = conditions: Verga et al. 2006; cited from earlier work
# pancreatic acinar cells = conditions: Ledda-Columbano et al. 2005; cited from earlier work
# [3] = in vivo administration, rats, Hartoft-Nielson et al. 2009; cited from earlier work
# HPANC-1 = conditions: non-insulin expressing human epithelial cell line HPANC-1, Misiti et al. 2005; cited from earlier work
# [4] = P8 islet cells treated with T3 vs control untreated cells, quantitative PCR, FIG. 9
# [5] = P8 islets cultured for 4 days with 0.015 nM T3 (T-9)
# [6] = dispersed P8 islets, glucose (11 mM and 20 mM) and T3, CS-FBS, FIG. 5C
smiles,measurement,setting,value
"N[C@@H](Cc1cc(I)c(Oc2ccc(O)c(I)c2)c(I)c1)C(=O)O [T3, L-3,5,3′-triiodothyronine]",MafA mRNA levels increase,"neonatal islets [1]; P7 dispersed islets, 10^−11 M T3 for four days, real-time PCR, FIG. 6A",about two-fold
same,transcription of MCT1,neonatal islets [1]; [4],significantly increases
same,transcription of MafA,neonatal islets [1]; [4],significantly increases
same,transcription of TRb,neonatal islets [1]; [4],significantly increases
same,MafA mRNA increase compared with control cultured islets,neonatal islets [1]; [5],2.5 fold
same,insulin mRNA increase compared with control cultured islets,neonatal islets [1]; [5],71%
same,insulin mRNA,"neonatal islets [1]; dispersed P7 islets, glucose (11 mM and 20 mM) and T3 at 10^−11 M in CS-FBS, stimuli separately and together",significantly increased
same,MafA mRNA,"neonatal islets [1]; dispersed P7 islets, glucose (11 mM and 20 mM) and T3 at 10^−11 M in CS-FBS, stimuli separately and together, FIG. 5A",significantly increased
same,MafA mRNA,neonatal islets [1]; [6],significantly increased
same,insulin mRNA,neonatal islets [1]; [6],significantly increased
same,Glucose-stimulated insulin secretion,P7 dispersed islets,significantly increased
same,insulin secretion in response to 16.8 mM glucose,"single beta cells; P7 cells cultured for 4 days with thyroid hormone, one experiment",an increase in insulin secretion
same,insulin secretion in the presence 16.8 mM glucose,"single beta cells; P7 cells treated with T3 compared to untreated control cells, FIGS. 7A and 7B legend",increases insulin secretion
same,insulin secretion index,"single beta cells; dispersed P8 islets cultured for 4 days with 10^−11 M T3, FIG. 7A",marked increase
same,percentage of insulin secreting cells,"single beta cells; dispersed P8 islets cultured for 4 days with 10^−11 M T3, FIG. 7B",marked increase
same,MafA transcription,neonatal islets [2],increase
same,apoptosis in beta cells,beta cells,reduces apoptosis
same,cell proliferation in beta cells,beta cells,promotes cell proliferation
same,proliferation in pancreatic acinar cells,pancreatic acinar cells,promotes increased proliferation
same,"proliferation in pancreatic islet (e.g., beta cells) and ductal cells",pancreatic acinar cells,"but not in pancreatic islet (e.g., beta cells) and ductal cells"
same,beta cell mass,[3],increased
same,incidence of type I diabetes,[3],reduced
same,differentiation to or towards a glucose responsive insulin secreting cell line,HPANC-1,promote differentiation

# From patent US9328331B2, “Compositions and methods for promoting beta cell maturity” (Joslin Diabetes Center, Inc., priority 2009, dated 2016)
